# Results as given in paper PMC12715762, “Discovery of VU6052254: A Novel, Potent M1 Positive Allosteric Modulator” (ACS Chemical Neuroscience, 2025).
# “Also recorded” adds a separate entry of the source.
# Legend:
# [1] = brain homogenate binding (rat); format: in vitro ADME; conditions: pH 7.4, rat (r), read-out: fu,brain
# Method: Plasma protein binding and Brain homogenate binding: Determination of fraction unbound (f u) in plasma was conducted in vitro via equilibrium dialysis using HTDialysis (HTD) membrane plates. The top half of the plate was filled with 100 uL of Dubelco’s Phosphate Buffered Saline, pH 7.4 (DPBS). Compounds were diluted into plasma from each species (5 µM final concentration), which was aliquoted in triplicate to the ‘bottom half’ of the prepared HTD plate wells. The HTD plate was sealed and incubated for 6 hours at 37 °C. Following incubation, each well (both top and bottom halves) were transferred (20 µL) to the corresponding wells of a 96-shallow-well (V-bottom) plate. […]
# The unbound fraction (f u) was calculated following the equation below, and mean values for each species were calculated from 3 replicates.
# A similar approach was used to determine the degree of brain homogenate binding, which employed the same methodology and procedure with the following modifications: 1) a final compound concentration of 1 μM was used, 2) naïve rat brains were homogenized in DPBS (1:3 composition of brain: DPBS, w/w) using a Mini-Bead Beater™ machine in order to obtain brain homogenate, which was then treated in the same manner as the plasma samples in the previously described plasma protein binding assay. Fraction unbound for both plasma and brain samples was determined using Equation 4. […]
# CYP 2B6 = CYP 2B6 (Homo sapiens, UniProt P20813); experiment: CYP450 inhibition; format: in vitro ADME
# [2] = IV/PO pharmacokinetics (rat); format: in vivo; conditions: Rat (SD)
# multispecies PK, summary = format: in vivo; conditions: rat, dog, NHP, plasma, across nonclinical species
# mice = experiment: modified Irwin neurological test battery; format: in vivo, mouse; conditions: result in words
# Method: To assess peripheral cholinergic toxicity, a modified Irwin neurological battery was performed to score autonomic or somatosensory side effects (Figure ).
# Sprague-Dawley rats = experiment: contextual fear conditioning (CFC); format: in vivo, rat
# Method: Contextual Fear Conditioning
# Contextual Fear Conditioning. Studies were conducted using conditioning chambers in sound attenuating cubicles equipped with a stainless steel grid floor for shock delivery and a video camera for recording freezing behavior (Med Associates, Fairfax, Vermont). Rats were acclimated to the apparatus for 3 days (10 minutes each day) prior to conditioning. On the training (conditioning) day, rats were pretreated by oral gavage with Vehicle (10% Tween 80) or Compound X […]
# conditioning chamber that contained 1 mL 10% vanilla extract as odor cue.2 After a 180-sec
# Adenosine A1 = Adenosine A1 (Homo sapiens, UniProt P30542); experiment: Eurofins radioligand binding
# Interleukin IL-1 R1 = Interleukin IL-1 R1 (Homo sapiens, UniProt P14778); experiment: Eurofins radioligand binding
# Muscarinic M2 = Muscarinic M2 (Homo sapiens, UniProt P08172); experiment: Eurofins radioligand binding
# Neuropeptide Y Y1 = Neuropeptide Y Y1 (Homo sapiens, UniProt P25929); experiment: Eurofins radioligand binding
# [3] = target: Nicotinic Acetylcholine α3β4 (Homo sapiens, UniProt P30926+P32297); experiment: Eurofins radioligand binding
# Opiate δ1 (OP1, DOP) = Opiate δ1 (OP1, DOP) (Homo sapiens, UniProt P41143); experiment: Eurofins radioligand binding
# [4] = target: Platelet Activating Factor (PAF) (Homo sapiens, UniProt P25105); experiment: Eurofins radioligand binding
# [5] = system: Purinergic P2Y, Non-Selective; experiment: Eurofins radioligand binding; conditions: Rat
# Serotonin (5-HT3) = Serotonin (5-HT3) (Homo sapiens, UniProt P46098); experiment: Eurofins radioligand binding
# Sigma σ1 = Sigma σ1 (Homo sapiens, UniProt Q99720); experiment: Eurofins radioligand binding
# Transporter, GABA = Transporter, GABA (Rattus norvegicus, UniProt P23978); experiment: Eurofins radioligand binding
# [6] = target: Transporter, Serotonin (SERT) (Homo sapiens, UniProt P31645); experiment: Eurofins radioligand binding
# Sequence of Transporter, Serotonin (SERT) (P31645 whole entry): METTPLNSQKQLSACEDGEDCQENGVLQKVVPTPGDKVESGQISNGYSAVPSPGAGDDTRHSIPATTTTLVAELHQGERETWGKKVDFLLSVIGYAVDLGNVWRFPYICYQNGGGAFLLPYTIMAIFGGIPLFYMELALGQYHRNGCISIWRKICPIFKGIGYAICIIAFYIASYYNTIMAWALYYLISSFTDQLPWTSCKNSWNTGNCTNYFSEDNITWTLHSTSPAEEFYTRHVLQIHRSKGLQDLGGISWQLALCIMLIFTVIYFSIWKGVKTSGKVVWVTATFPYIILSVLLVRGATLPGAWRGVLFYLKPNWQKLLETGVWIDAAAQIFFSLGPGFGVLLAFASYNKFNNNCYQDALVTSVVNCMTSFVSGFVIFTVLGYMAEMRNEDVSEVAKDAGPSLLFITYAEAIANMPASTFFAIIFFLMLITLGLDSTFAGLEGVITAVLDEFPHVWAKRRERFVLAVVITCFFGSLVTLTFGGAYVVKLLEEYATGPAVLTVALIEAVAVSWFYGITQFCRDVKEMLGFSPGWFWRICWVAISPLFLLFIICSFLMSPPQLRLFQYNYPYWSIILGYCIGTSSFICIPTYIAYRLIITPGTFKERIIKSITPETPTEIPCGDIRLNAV
# Sequence of Nicotinic Acetylcholine α3β4 (P32297 32-505): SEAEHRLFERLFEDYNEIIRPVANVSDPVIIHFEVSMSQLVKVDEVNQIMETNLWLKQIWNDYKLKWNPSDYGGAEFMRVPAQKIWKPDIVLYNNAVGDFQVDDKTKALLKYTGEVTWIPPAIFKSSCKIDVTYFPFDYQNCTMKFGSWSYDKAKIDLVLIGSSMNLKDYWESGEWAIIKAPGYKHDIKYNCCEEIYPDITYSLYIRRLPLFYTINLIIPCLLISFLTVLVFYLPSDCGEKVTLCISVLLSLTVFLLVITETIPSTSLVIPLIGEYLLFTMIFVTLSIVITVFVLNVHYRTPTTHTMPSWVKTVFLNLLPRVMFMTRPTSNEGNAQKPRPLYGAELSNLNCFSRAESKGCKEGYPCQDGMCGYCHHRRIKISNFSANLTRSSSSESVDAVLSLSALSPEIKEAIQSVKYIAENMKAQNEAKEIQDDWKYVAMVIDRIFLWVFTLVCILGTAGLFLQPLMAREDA
# Sequence of Nicotinic Acetylcholine α3β4 (P30926 22-498): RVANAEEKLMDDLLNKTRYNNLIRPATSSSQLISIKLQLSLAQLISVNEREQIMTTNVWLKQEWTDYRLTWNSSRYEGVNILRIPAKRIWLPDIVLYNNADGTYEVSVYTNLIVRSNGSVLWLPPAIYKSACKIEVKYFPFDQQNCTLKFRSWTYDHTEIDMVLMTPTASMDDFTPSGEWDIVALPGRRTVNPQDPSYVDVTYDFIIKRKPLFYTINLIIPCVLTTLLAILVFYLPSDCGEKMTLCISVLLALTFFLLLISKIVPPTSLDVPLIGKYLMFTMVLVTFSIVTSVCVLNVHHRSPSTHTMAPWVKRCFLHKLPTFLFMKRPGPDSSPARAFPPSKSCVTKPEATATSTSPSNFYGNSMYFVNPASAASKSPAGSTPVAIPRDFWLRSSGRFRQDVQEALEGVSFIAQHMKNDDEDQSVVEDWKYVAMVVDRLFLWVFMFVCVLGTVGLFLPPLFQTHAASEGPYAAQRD
# Sequence of Sigma σ1 (Q99720 whole entry): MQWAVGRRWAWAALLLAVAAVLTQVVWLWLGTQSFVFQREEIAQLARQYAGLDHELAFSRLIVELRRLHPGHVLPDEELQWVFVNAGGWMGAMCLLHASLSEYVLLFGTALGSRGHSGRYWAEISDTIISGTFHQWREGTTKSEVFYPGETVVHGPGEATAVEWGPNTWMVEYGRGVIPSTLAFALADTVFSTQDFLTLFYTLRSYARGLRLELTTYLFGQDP
# Sequence of Muscarinic M2 (P08172 whole entry): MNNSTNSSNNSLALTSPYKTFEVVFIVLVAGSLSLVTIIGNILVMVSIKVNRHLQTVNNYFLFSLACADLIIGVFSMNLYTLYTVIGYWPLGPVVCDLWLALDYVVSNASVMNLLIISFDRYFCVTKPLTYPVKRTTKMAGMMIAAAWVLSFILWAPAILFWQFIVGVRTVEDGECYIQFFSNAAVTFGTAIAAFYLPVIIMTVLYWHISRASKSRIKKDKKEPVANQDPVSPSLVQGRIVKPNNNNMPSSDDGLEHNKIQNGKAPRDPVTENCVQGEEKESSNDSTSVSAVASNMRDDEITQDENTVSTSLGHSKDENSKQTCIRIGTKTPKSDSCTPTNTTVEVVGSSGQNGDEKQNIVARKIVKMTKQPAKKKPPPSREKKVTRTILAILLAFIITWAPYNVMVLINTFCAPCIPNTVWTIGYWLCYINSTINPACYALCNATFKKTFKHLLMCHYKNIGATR
# Sequence of Opiate δ1 (OP1, DOP) (P41143 whole entry): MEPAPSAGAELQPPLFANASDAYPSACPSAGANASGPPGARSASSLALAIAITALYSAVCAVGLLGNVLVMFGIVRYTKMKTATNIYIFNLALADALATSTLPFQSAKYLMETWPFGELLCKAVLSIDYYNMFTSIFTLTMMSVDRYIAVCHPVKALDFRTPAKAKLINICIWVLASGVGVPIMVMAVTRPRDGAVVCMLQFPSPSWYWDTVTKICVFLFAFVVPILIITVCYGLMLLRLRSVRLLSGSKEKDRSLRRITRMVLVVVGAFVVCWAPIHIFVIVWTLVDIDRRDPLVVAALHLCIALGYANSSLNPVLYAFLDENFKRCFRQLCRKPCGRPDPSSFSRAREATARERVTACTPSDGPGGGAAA
# Sequence of Serotonin (5-HT3) (P46098 24-478): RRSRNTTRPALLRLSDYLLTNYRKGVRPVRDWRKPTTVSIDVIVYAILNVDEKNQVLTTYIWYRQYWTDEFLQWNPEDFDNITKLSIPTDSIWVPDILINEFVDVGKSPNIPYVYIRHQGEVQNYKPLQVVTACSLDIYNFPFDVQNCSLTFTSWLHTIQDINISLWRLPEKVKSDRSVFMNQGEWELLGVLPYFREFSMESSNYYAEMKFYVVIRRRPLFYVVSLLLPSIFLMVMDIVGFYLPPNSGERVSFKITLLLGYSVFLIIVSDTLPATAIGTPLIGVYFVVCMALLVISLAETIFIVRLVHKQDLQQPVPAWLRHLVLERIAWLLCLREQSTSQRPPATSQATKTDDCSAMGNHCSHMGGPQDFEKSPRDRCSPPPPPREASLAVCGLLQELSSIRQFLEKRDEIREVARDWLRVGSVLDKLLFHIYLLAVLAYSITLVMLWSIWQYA
# Sequence of CYP 2B6 (P20813 whole entry): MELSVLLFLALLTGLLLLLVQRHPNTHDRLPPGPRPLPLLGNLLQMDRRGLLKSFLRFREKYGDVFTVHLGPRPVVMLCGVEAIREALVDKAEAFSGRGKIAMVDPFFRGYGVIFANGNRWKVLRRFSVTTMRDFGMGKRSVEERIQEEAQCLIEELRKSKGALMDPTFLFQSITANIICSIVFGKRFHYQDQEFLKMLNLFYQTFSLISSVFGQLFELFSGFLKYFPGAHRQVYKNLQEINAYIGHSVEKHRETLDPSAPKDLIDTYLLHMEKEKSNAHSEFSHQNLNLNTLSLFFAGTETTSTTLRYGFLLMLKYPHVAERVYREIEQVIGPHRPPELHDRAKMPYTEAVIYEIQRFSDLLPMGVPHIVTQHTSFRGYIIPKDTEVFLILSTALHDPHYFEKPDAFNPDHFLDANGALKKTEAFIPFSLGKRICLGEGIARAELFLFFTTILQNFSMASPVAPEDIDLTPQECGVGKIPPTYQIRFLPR
# Sequence of Interleukin IL-1 R1 (P14778 18-569): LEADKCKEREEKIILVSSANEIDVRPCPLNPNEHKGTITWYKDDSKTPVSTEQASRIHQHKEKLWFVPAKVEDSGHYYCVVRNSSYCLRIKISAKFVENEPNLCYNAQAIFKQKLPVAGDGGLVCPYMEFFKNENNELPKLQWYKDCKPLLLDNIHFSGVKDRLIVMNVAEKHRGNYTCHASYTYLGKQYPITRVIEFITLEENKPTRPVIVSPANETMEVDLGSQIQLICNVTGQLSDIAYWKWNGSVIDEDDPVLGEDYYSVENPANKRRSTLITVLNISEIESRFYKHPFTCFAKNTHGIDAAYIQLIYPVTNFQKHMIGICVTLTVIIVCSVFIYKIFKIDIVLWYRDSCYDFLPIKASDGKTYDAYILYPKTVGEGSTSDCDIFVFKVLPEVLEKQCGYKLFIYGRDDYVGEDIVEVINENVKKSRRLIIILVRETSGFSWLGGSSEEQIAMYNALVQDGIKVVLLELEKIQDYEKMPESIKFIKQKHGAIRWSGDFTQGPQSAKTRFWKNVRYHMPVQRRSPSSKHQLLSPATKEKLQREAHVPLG
smiles,measurement,setting,value
Cn1cc2c(-c3cc(F)c(CN4Cc5ncccc5C4=O)c(F)c3)ccc(C(C)(C)O)c2n1 [compound 7],"fraction unbound at 6 h, 1 μM",[1],0.027
same,IC50,CYP 2B6,> 30 µM
same,F (%) po,"[2]; 10 mg/kg po, 10 mg/kg",>100%
same,clearance,"[2]; Sprague-Dawley, plasma, 1 mg/kg iv, read-out: CLp",5.8 mL/min/kg
same,half-life,"[2]; Sprague-Dawley, plasma, 1 mg/kg iv, read-out: Elimination t1/2 (converted)",3.7 h
same,Vd,"[2]; Sprague-Dawley, plasma, 1 mg/kg iv, read-out: Vss",1.3 L/kg
same,AUC,"[2]; Sprague-Dawley, plasma, 10 mg/kg po",110 µM·h
same,Cmax,"[2]; plasma, 10 mg/kg po",15.9 µM
same,Tmax,"[2]; plasma, 10 mg/kg po",1 h
same,bioavailability,"multispecies PK, summary; read-out: %F, multispecies",> 65%
same,clearance,"multispecies PK, summary; read-out: Clp s, multispecies",< 10 mL/min/kg
same,adverse effects / SLUDGE in modified Irwin battery,"mice; 56.6 mg/kg IP, 6 h time course",minimal adverse effects or SLUDGE were noted
same,adverse effects / SLUDGE in modified Irwin battery,"mice; 56.6 mg/kg IP, 6 h time course, listed as VU6052254",minimal adverse cholinergic events (SLUDGE) were noted
same,adverse effects / SLUDGE in modified Irwin battery,mice; 100 mg/kg IP,more pronounced adverse effects seen
same,adverse effects / SLUDGE in modified Irwin battery,"mice; 100 mg/kg IP, listed as VU6052254",adverse cholinergic events (SLUDGE) were noted
same,total brain concentration at CFC MED,"Sprague-Dawley rats; 0.3 mg/kg PO, rat",58 nM
same,effect on acquisition of CFC,"Sprague-Dawley rats; 0.03-3 mg/kg PO, result in words",robust dose-dependent enhancement in the acquisition of contextual fear conditioning; also recorded: dose-dependently enhanced the acquisition of CFC
same,minimum effective dose (MED) in rat CFC,"Sprague-Dawley rats; PO, 10% Tween 80 in water, male Sprague-Dawley rats",0.3 mg/kg
same,inhibition at 10 µM,Adenosine A1,-2%
same,inhibition at 10 µM,Interleukin IL-1 R1,-10%
same,inhibition at 10 µM,Muscarinic M2,3%
same,inhibition at 10 µM,Neuropeptide Y Y1,-10%
same,inhibition at 10 µM,[3],4%
same,inhibition at 10 µM,"Opiate δ1 (OP1, DOP)",-2%
same,inhibition at 10 µM,[4],1%
same,% Inhibition at 10 µM,[5],21%
same,inhibition at 10 µM,Serotonin (5-HT3),-14%
same,inhibition at 10 µM,Sigma σ1,6%
same,inhibition at 10 µM,"Transporter, GABA",-12%
same,inhibition at 10 µM,[6],-1%
